According to PubChem BioAssay (NCI):
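Growth conditions: 96-well plates. Treatment: test compound, 48 hours, 5 concentrations. Analysis: linear interpolation between bracketing concentrations; unreached endpoints set to highest concentration. Definition used: TGI = concentration required for complete inhibition of growth.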

Tests used:
Experiment in all cases: NCI anticancer screen, dose series, 48 h
HCT-15 colon = tested on: HCT-15 colon
UO-31 renal = tested on: UO-31 renal
MDA-MB-231 breast = tested on: MDA-MB-231 breast
SF-295 CNS = tested on: SF-295 CNS
OVCAR-3 ovarian = tested on: OVCAR-3 ovarian
MDA-N = tested on: MDA-N
CCRF-CEM leukemia = tested on: CCRF-CEM leukemia
SK-OV-3 ovarian = tested on: SK-OV-3 ovarian
HOP-62 NSCLC = tested on: HOP-62 NSCLC
EKVX NSCLC = tested on: EKVX NSCLC
M14 melanoma = tested on: M14 melanoma
A498 renal = tested on: A498 renal
LOX IMVI melanoma = tested on: LOX IMVI melanoma

Row | Structure (SMILES) | TGI (HCT-15 colon) | TGI (UO-31 renal) | TGI (MDA-MB-231 breast) | TGI (SF-295 CNS) | TGI (OVCAR-3 ovarian) | TGI (MDA-N) | TGI (CCRF-CEM leukemia) | TGI (SK-OV-3 ovarian) | TGI (HOP-62 NSCLC) | TGI (EKVX NSCLC) | TGI (M14 melanoma) | TGI (A498 renal) | TGI (LOX IMVI melanoma)
1 | CCOC(=O)/C(C(=S)NC)=C(/N)N1CCCC1 | > 100 µM | > 100 µM | > 100 µM | > 100 µM | > 100 µM | > 100 µM | > 100 µM | > 100 µM | > 100 µM | > 100 µM | > 100 µM | > 100 µM | > 100 µM
2 | O=c1oc2ncccc2n1Cc1ccc([N+](=O)[O-])cc1 | > 100 µM | > 100 µM | > 100 µM | > 100 µM | > 100 µM | > 100 µM | > 100 µM | > 100 µM | > 100 µM | > 100 µM | > 100 µM | > 100 µM | > 100 µM
3 | CN(Cc1cnc2nc(N)nc(N)c2n1)c1ccc(C(=O)NC(CCS(=O)(=O)O)C(=O)O)cc1 (configuration not stated) | > 100 µM | > 100 µM | > 100 µM | > 100 µM | > 100 µM | > 100 µM | 0.739 µM | > 100 µM | > 100 µM | > 100 µM | > 100 µM | > 100 µM | > 100 µM
4 | C=CCN1CCC(OC(=O)C(O)(/C=C\CC)C2CCCC2)CC1 (configuration not stated) | > 100 µM | > 100 µM | > 100 µM | > 100 µM | > 100 µM | > 100 µM | > 100 µM | > 100 µM | > 100 µM | > 100 µM | > 100 µM | > 100 µM | > 100 µM
5 | COc1cc(/C=C2\C(=O)N(c3cccc(Cl)c3)C(c3ccccc3)S2(=O)=O)cc(OC)c1OC (configuration not stated) | > 100 µM | > 100 µM | > 100 µM | > 100 µM | > 100 µM | 46.6 µM | 71.8 µM | > 100 µM | > 100 µM | > 100 µM | > 100 µM | > 100 µM | 97.2 µM
6 | C=C1CC(OC(C)=O)/C=C(/C)CCC(C(C)(C)O)CC1O (configuration not stated) | > 100 µM | > 100 µM | > 100 µM | > 100 µM | > 100 µM | > 100 µM | > 100 µM | > 100 µM | > 100 µM | > 100 µM | > 100 µM | > 100 µM | > 100 µM
7 | COc1cc2c(cc1C)NC(=O)/C2=C/c1c(Cl)[nH]c2cc(C)c(OC)cc12 | 17.5 µM | 23.4 µM | 33.2 µM | 6.18 µM | 8.6 µM | 8.93 µM | 5.16 µM | 5.56 µM | 23.2 µM | 22.8 µM | 13.7 µM | 23.1 µM | 15.7 µM
8 | CC1=C(C)C(=O)OC(C(C)(O)C2(O)CCC3(O)C4CC(Cl)C5(O)C(O)C=CC(=O)C5(C)C4CCC32C)C1 (configuration not stated) | > 100 µM | > 100 µM | > 100 µM | > 100 µM | > 100 µM | > 100 µM | 53.4 µM | > 100 µM | > 100 µM | > 100 µM | > 100 µM | > 100 µM | 46.4 µM
9 | CCOC(=O)C(Cc1ccc2c(c1)CCC2)(Cc1ccc2c(c1)CCC2)C(=O)OCC | > 100 µM | > 100 µM | > 100 µM | > 100 µM | > 100 µM | > 100 µM | > 100 µM | > 100 µM | > 100 µM | > 100 µM | > 100 µM | > 100 µM | > 100 µM
